According to patent publication US7820379B2, “Process for high throughput screening of CpG-based immuno-agonist/antagonist” (Coley Pharmaceutical GmbH, priority 2000, dated 2010):

T1: murine TLR9 (Mus musculus, UniProt Q9EQU3, L378S/Q579H/T325N/T573A/T867A)
T1 construct: additional primers were designed for amplification of the complete mouse TLR9 cDNA; expressed in transfected cells
T1 sequence (Q9EQU3 26-1032 T325N/L378S/T573A/Q579H/T867A): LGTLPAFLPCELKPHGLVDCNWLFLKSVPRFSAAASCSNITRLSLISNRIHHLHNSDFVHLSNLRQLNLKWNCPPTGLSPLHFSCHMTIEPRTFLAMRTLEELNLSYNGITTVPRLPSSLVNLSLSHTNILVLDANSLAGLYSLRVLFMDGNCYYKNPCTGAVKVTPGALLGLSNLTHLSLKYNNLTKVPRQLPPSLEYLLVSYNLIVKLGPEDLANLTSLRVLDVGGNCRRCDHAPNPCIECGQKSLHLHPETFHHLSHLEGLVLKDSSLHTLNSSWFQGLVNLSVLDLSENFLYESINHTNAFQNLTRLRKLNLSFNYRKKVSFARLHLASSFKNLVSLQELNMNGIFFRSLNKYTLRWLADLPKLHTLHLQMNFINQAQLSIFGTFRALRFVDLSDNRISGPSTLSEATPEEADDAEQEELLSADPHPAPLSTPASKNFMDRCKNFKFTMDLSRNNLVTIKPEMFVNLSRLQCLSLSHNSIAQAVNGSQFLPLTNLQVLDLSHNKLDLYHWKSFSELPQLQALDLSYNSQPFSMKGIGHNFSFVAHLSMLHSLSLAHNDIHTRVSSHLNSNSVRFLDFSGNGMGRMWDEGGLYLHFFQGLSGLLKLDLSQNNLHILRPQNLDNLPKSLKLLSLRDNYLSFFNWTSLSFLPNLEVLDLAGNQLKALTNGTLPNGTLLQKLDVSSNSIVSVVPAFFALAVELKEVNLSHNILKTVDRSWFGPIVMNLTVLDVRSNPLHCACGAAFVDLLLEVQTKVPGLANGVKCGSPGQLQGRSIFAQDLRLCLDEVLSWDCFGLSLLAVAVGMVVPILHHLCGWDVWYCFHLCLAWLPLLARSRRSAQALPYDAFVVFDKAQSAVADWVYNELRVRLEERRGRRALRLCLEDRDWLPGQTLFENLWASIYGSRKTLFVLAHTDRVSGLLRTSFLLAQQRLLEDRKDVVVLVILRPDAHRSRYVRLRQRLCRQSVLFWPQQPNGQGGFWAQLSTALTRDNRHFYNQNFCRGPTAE

B1: IL-4: the cytokine IL-4 (protein, UniProt P05112 25-153, looked up)
Interleukin-4: HKCDITLQEIIKTLNSLTEQKTLCTELTVTDIFAASKNTTEKETFCRAATVLRQFYSHHEKDTRCLGATAQQFHRHKQLIRFLKRLDRNLWGLAGLNSCPVKEANQSTLENFLERLKTIMREKYSKCSS

How the values were obtained:
murine TLR9 = target: T1, murine TLR9; experiment: IL-8 production by ELISA in 293 cells transfected with murine TLR9; assay type: cell-based; details: 293 cells transiently transfected with mTLR9, stimulated with 1.0 μM CpG-ODN 1668; 48 h
Source text: Human fibroblast 293 cells were transiently transfected with mTLR9 and the NF-κB-luc construct (FIG. 2). Similar data was obtained for IL-8 production (not shown). Thus expression of TLR9 (human or mouse) in 293 cells results in a gain of function for CpG-DNA stimulation similar to hTLR4 reconstitution of LPS responses.
To generate stable clones expressing human TLR9, murine TLR9, or either TLR9 with the NF-κB-luc reporter plasmid, 293 cells were transfected in 10 cm plates (2×10^6 cells/plate) with 16 μg of DNA and selected with 0.7 mg/ml G418 (PAA Laboratories GmbH, Cölbe, Germany). The clones were also screened for IL-8 production or NF-κB-luciferase activity after stimulation with ODN. Four different types of clones were generated. • 293-hTLR9-luc: expressing human TLR9 and 6-fold NF-κB-luciferase reporter • 293-mTLR9-luc: expressing murine TLR9 and 6-fold NF-κB-luciferase reporter • 293-hTLR9: expressing human TLR9 • 293-mTLR9: expressing murine TLR9
It has been hypothesized that in order for DNA to enter the endosomal/lysosomal compartment a non-CpG dependent uptake receptor may be required. 293 cells were transiently transfected with mTLR9 treated with either medium only or 1.0 μM CpG-ODN 1668 (FIG. 15). […] IL-8 production was monitored after 48 h by ELISA.

TLR9 = experiment: Expression of TLR9; assay type: cell-based
Source text: The invention also embraces agents which bind selectively to certain regulatory sequences associated with the murine TLR9 nucleic acid molecules described herein. The agents include polypeptides which bind to transcription and translation regulatory sequences of murine TLR9, and antisense nucleic acids, both of which are described in greater detail below. The agents can inhibit or increase murine TLR9 expression, as well as signaling activity (antagonists and agonists, respectively). Agents which bind selectively to regulatory sequences associated with the murine TLR9 nucleic acid molecules can be identified using methods familiar to those of skill in the art. For example, a promoter region including at least 100, 200, 300, 400, 500, or more nucleotides upstream (5′) of the coding region of murine TLR9 can be identified by isolating, from appropriate genomic DNA, such nucleotide sequences using the sequences of SEQ ID NO:1 or SEQ ID NO:2 as primers or as probes, and then inserting the promoter region DNA into an appropriate expression vector so as to control the expression of TLR9 or some other reporter gene, introducing the TLR9 promoter vector into an appropriate host cell, and screening for TLR9 or reporter expression by those cells following their incubation in the presence and absence of various test agents. […]

| Molecule | antagonism of activation (IL-8 production) (murine TLR9) | expression of TLR9 (TLR9) |
| --- | --- | --- |
| 5′-CTCCTAGTGGGGGTGTCCTAT-3′ (listed as DNA, chemistry not given here) [PZ2] | in a dose-dependent manner, was able to antagonize the activation | – |
| B1 | – | inhibits |
